“Also recorded” adds a separate entry of the source.
Columns and labels:
[1] = test system: db/db mice; test: Study 3: plasma N-glycan profile in insulin detemir-treated db/db mice; format: in vivo; settings: for Direction of Change, High Mannose glycan 520000 (Man5GlcNAc2) / Direction of Change, High Mannose glycan 620000 (Man6GlcNAc2) / Direction of Change, High Mannose glycan 720000 (Man7GlcNAc2) / Direction of Change, High Mannose glycan 820000 (Man8GlcNAc2) / Direction of Change, Hybrid glycan 430010 / Direction of Change, Hybrid glycan 530010 / Direction of Change, Hybrid glycan 630010: subcutaneous, two doses of 10 U/kg per day, days 7, 14, 21, vs vehicle
Experimental: In Study 3, changes in the N-linked glycosylation profile of total serum proteins obtained from diabetic mice were further characterized using a different drug-treatment to determine the drug specificity of the rosiglitazone-induced changes. In an animal study, insulin detemir was administered subcutaneously in two doses of 10 U/kg per day. Samples were collected from insulin detemir and vehicle-treated db/db mice at four time points (0, 7, 14, and 21 days). (Insulin detemir is a long-acting insulin marketed by Novo Nordisk under the trade name LEVEMIR.). […] The high mannose N-glycans that were decreased in the insulin-treated db/db mice were Man8GlcNAc2 (820000), Man7GlcNAc2 (720000), Man6GlcNAc2 (620000), and Man5GlcNAc2 (520000). The hybrid N-glycans that were decreased in the insulin-treated db/db mice were SiaGalGlcNAcMan3GlcNAc2 (430010), SiaGalGlcNAcMan4GlcNAc2 (530010), and SiaGalGlcNAcMan5GlcNAc2 (630010), wherein Sia is Neu5Ac or Neu5Gc.
The objective of this study was to evaluate the performance of candidate biomarkers discovered using rosiglitazone in mice treated with a diabetes drug with a different mechanism of action. The 16 candidate markers that were identified in Example 1 were evaluated in db/db mice treated with insulin detemir and vehicle.
In this Example, plasma samples were analyzed from ten db/db mice at baseline (0 days), and 20 db/db mice (ten vehicle and ten insulin detemir) at 7, 14, and 21 days. Sample preparation and analysis followed the protocol described in Example 1.
Data Analysis: For this study, the analysis was extended to evaluate changes in all detected N-glycans in order to reveal any novel N-glycan changes that might be specific to insulin detemir. The extended analysis was not performed in Study 2, which included only baseline and Day 7 time points since N-glycan changes at Day 7 could not be evaluated to determine if they are sustained over time. Drug-treated and vehicle-treated db/db mice were compared across each time point using the Student's t-test. To evaluate time-dependent changes, each time point within a treatment group was compared to its corresponding Day 0 group. N-glycans which yielded p-values <0.05 in this analysis were considered significant.
The concentrations of individual N-glycans in insulin detemir- and vehicle-treated db/db mice were compared at each time point using the Student's t-test. […] Time-dependence was also evaluated for each of the candidate markers by comparing each time point to baseline.

[2] = test system: db/db mice; test: Study 1: plasma N-glycan profile (GLYCANMAP, MALDI-TOF MS) and HbA1c in rosiglitazone-treated db/db mice; format: in vivo; settings: 10 mpk oral once daily, vs vehicle
Excerpt: An initial study (Study 1) was an analysis of 160 plasma samples collected from rosiglitazone-treated mice following oral administration of 10 mpk once daily for up to 39 days. Rosigilitazone is an athiazolidinedione class of antidiabetic drug marketed by Glaxo under the trade name AVANDIA. […] These changes, on an individual N-glycan basis, reached high statistical significance (P<0.001) as early as seven days, a full two weeks prior to changes in HbA1c (day seven vs. day 21, respectively). […]
The objective of Study 1 was to evaluate N-linked glycosylation changes in plasma proteins that precede and predict the decrease in glycated hemoglobin (HbA1c) associated with successful resolution of diabetes. […] A baseline (Day 0) sample was not analyzed in the initial rosiglitazone study, but was included in the subsequent studies described in Examples 2 and 3.
GLYCANMAP Assay (a registered trademark of Ezose Sciences, Pine Brook, N.J.): A 10 μL aliquot of each plasma sample was spiked with internal standard (700 pmol) to aid in quantitation. The spiked aliquots were analyzed for N-linked glycans using GLYCANMAP methodology, which is based on the methods previously reported by Nishimura, Furukawa and Miura (Nishimura et al., Angew Chem. Int. Ed. Engl., 44: 91-96 (2004); Furukawa et al., Anal. Chem., 80: 1094-1101 (2008); Miura et al., Chem.-A Eur. J, 13: 4797-4804 (2007)). […]

[3] = serum samples, vs non-treated controls

Molecule	Change in O-acetylated N-glycans [1, 3]	Change in fucosylated N-glycans [1, 3]	Change in tetraantennary N-glycans [1, 3]	Direction of Change, High Mannose glycan 520000 (Man5GlcNAc2) [1]	Direction of Change, High Mannose glycan 620000 (Man6GlcNAc2) [1]	Direction of Change, High Mannose glycan 720000 (Man7GlcNAc2) [1]	Direction of Change, High Mannose glycan 820000 (Man8GlcNAc2) [1]	Direction of Change, Hybrid glycan 430010 [1]	Direction of Change, Hybrid glycan 530010 [1]	Direction of Change, Hybrid glycan 630010 [1]	Direction of Change, High Mannose glycan 520000 (Man5GlcNAc2) ([1]; listed as Insulin Detemir)	Direction of Change, High Mannose glycan 620000 (Man6GlcNAc2) ([1]; listed as Insulin Detemir)	Direction of Change, High Mannose glycan 720000 (Man7GlcNAc2) ([1]; listed as Insulin Detemir)	Direction of Change, High Mannose glycan 820000 (Man8GlcNAc2) ([1]; listed as Insulin Detemir)	Direction of Change, Hybrid glycan 430010 ([1]; listed as Insulin Detemir)	Direction of Change, Hybrid glycan 530010 ([1]; listed as Insulin Detemir)	Direction of Change, Hybrid glycan 630010 ([1]; listed as Insulin Detemir)	Time at which highly significant (p<0.001) change in HbA1c was achieved [2]
insulin detemir	No change	No change	No change	decreased; also recorded: lower	decreased; also recorded: lower	decreased; also recorded: lower	decreased; also recorded: lower	decreases; also recorded: lower	decreases; also recorded: lower	decreases; also recorded: lower	Decreased	Decreased	Decreased	Decreased	Decreased	Decreased	Decreased	
CN(CCOc1ccc(CC2SC(=O)NC2=O)cc1)c1ccccn1 (stereo not drawn) [rosiglitazone]																		21 days

Source: patent publication US20150083906A1, “BIOMARKERS FOR MONITORING INTERVENTION THERAPIES FOR DIABETES” (MERCK SHARP & DOHME CORP., priority 2012, published 2015)
